According to patent US8304206B2, “Mass spectrometry assays for identifying compounds that activate deacetylases” (Sirtris Pharmaceuticals, Inc., priority 2005, dated 2012):
Where two headings read alike, the source gives them in different places. One block for each compound: values may come before it. No end group written: not given here.

Legend:
SIRT1 [1] = target: T1, SIRT1 (Homo sapiens, UniProt Q96EB6); test: SIRT1 Km for NAD+ (mass spectrometry); format: biochemical; conditions: 50 μM Acetylated Peptide Substrate, 1% DMSO
T1 sequence (Q96EB6 1-747): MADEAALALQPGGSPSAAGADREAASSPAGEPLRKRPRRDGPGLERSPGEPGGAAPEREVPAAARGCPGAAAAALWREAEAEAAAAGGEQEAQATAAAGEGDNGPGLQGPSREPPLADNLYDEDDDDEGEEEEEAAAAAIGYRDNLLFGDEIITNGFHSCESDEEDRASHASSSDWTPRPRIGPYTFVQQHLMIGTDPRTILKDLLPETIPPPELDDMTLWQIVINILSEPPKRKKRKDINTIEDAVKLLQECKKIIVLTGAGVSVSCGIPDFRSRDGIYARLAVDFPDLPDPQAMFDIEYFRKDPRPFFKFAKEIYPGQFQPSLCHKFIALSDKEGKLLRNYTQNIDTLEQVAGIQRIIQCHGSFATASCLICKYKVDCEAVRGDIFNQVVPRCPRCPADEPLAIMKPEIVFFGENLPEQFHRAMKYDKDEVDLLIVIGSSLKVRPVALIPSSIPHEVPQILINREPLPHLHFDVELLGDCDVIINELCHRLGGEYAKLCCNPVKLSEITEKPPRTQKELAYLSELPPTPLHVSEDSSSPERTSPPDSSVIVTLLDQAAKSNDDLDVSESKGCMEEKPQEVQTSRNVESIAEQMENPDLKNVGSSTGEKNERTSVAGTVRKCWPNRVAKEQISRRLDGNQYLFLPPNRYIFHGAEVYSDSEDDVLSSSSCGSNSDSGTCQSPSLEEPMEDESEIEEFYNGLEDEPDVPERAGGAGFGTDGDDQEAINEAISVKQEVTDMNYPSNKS

Sirt2 [2] = target: T2, Sirt2 (Homo sapiens, UniProt Q8IXJ6); conditions: Sirt2, FRET; peptide p53 20 mer (aa 372-387) *FL; read-out: NAD Km; cited from earlier work
T2 sequence (Q8IXJ6 1-389): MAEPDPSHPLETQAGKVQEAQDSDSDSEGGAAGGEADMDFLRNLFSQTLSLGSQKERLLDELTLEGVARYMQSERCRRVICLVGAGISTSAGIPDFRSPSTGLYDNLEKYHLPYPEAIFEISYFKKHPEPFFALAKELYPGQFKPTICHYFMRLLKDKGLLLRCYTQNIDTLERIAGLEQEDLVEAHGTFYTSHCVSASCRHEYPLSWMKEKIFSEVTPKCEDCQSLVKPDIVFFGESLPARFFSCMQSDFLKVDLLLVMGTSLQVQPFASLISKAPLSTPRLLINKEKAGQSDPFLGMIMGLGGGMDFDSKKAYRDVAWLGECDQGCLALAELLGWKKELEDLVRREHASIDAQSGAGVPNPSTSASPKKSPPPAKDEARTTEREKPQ

SIRT1 [3] = target: T1, SIRT1; conditions: Sirt1, FRET; peptide p53 20 mer (aa 372-387) *FL; read-out: NAD Km; cited from earlier work
Sirt2 [4] = target: T2, Sirt2; conditions: Sirt2, Fluorescent, cited from earlier work
SIRT1 [5] = target: T1, SIRT1; conditions: Sirt1, Nicotinamide release; peptide p53 19 mer (aa 368-386) no FL; read-out: NAD Km; cited from earlier work
SIRT1 [6] = target: T1, SIRT1; conditions: Sirt1, Nicotinamide release, read-out: NAD Km, cited from earlier work
SIRT1 [7] = target: T1, SIRT1; conditions: Sirt1, Fluorescent, cited from earlier work
Sirt3 = target: T3, Sirt3 (Homo sapiens, UniProt Q9NTG7); conditions: Sirt3, Fluorescent, cited from earlier work
T3 sequence (Q9NTG7 1-399): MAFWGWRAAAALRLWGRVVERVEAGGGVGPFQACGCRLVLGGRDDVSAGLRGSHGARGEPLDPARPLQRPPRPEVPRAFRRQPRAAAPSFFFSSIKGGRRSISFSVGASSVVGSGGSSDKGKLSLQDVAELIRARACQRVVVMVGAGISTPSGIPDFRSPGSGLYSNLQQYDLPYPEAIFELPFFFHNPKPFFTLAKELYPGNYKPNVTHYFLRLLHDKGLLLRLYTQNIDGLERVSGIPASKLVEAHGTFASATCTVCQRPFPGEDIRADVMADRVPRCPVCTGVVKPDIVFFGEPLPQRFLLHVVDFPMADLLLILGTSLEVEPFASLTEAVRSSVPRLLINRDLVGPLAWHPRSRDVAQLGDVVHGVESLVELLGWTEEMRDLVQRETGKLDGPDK

NCI-H358 cells [8] = test: Cellular ATP Assay (ATPLite 1Step normalized to AlamarBlue viability); format: cell-based, human; conditions: compounds that raised intracellular ATP levels, 48 hours, read-out: ED50 ATP ASSAY
Procedure: Cellular ATP levels are an indirect measurement of cellular metabolic rates and, by extension, mitochondrial function. […] The ATP assay is combined with a cellular viability assay so that cellular ATP levels can be normalized to viable cells. Cellular ATP levels were measured using the ATPLite 1Step Kit (PerkinElmer) and cellular viability was measured using the cell permeable dye, AlamarBlue™.
The Cellular ATP Assay is a multiplexed assay that measures both ATP levels and viability of a given cell sample. This assay is run in a 96-well Assay Plate and data are reported as the [ATP]/viability for each well in the Assay Plate.
The ATPLite 1Step™ Kit is a single-step luminescent cell-based assay for detection of ATP. The kit contains lyophilized substrate mixture, comprised of D-luciferin and the firefly (Photinus pyralis) enzyme luciferase. Additionally, the kit contains a detergent-based reconstitution buffer that induces the lysis of cellular membranes. The luciferase in the assay mixture catalyzes a reaction between the free cellular ATP and D-luciferin to produce bioluminescence according to the schematic reaction outlined below. […]
The AlamarBlue™ Assay is a single-step assay that utilizes a soluble, non-toxic, cell permeable dye that is added to cell growth media. […] The reduced dye product gives a fluorescent signal which can be monitored with a fluorescence plate reader (excitation 545 nm and emission 575 nm). The amount of fluorescence generated in a given well is proportional to the number of viable cells. […]
In this assay NCI-H358 cells (obtained from the American Tissue Culture Collection, ATCC) were seeded in 96 well microplates (10^4 cells/well). […] Cell microplates were incubated with dye for 2 hours under growth conditions, and fluorescence was subsequently measured using a plate reader. […] Luminescence was then measured using a plate reader. The ATP signal for each well, measured by the luminescence scan, was normalized to its corresponding cell viability value, measured by the fluorescence scan, to generate the average ATP level per viable cell unit (ATP/vCell). […]

SIRT1 [9] = target: T1, SIRT1; test: SIRT1 mass spectrometry assay (screening for activation); format: biochemical
NCI-H358 cells [10] = test: Western blot of mitochondrial mass biomarkers; format: cell-based, human; conditions: 48 hours; 0, 1, 10 or 100 uM
Procedure: Western blots were conducted to correlate an observed increase in cellular ATP levels upon exposure of cells to a sirtuin activating compound to an increase in mitochondrial mass. […] Cell lysates were then prepared and specific mitochondrial proteins were quantitated by western analysis using antibodies specific to the following proteins: Succinate-Ubiquinol Oxidoreductase (Mitochondrial Complex II Protein, mouse monoclonal, InVitrogen, Cat. #A11142); ATP synthase F1F0 (Mitochondrial Complex V Protein, mouse monoclonal, InVitrogen, Cat.# A21350); NADH-Ubiquinol Oxidoreductase (Mitochondrial Complex I Protein, mouse monoclonal, InVitrogen, Cat. #A21344). Normalization was to alpha tubulin using a rabbit polyclonal (Santa Cruz Biotech, Cat # SC-9104). Secondary antibody used for specific protein detection was AlexaFluor 680 conjugated […] IgG (Goat) (Rockland Immunochemicals, Cat.#610-132-121) and for tubulin expression was IRDye 800 goat anti-mouse IgG (InVitrogen Cat. # A21076). Protein quantification was preformed using infrared dye labeled secondary antibodies followed by blot scan using the Licor® Odyssey® scanner.

SIRT1 [11] = target: T1, SIRT1; test: Effect of compounds on the Km of SIRT1 for Acetylated Peptide Substrate (mass spectrometry); format: biochemical; conditions: vs DMSO Km
[12] = peptide p53 (aa 317-320) *FL, read-out: NAD Km

Km (SIRT1 [1]): 220 µM
Compound: NC(=O)c1ccc[n+]([C@@H]2O[C@H](COP(=O)([O-])OP(=O)(O)OC[C@H]3O[C@@H](n4cnc5c(N)ncnc54)[C@H](O)[C@@H]3O)[C@@H](O)[C@H]2O)c1 [NAD^+]
Km (Sirt2 [2]): 42 µM | Km (SIRT1 [3]): 90 µM | Km (Sirt2 [4]; [12]): 547 µM | Km (SIRT1 [5]): 133 µM | Km (SIRT1 [6]; peptide p53 (aa 368-386) *FL): 192 µM | Km (SIRT1 [6]; peptide p53 (aa 368-386) no FL): 132 µM | Km (SIRT1 [7]; peptide p53 (aa 379-382) *FL, read-out: NAD Km): 558 µM | Km (Sirt3; [12]): 2030 µM

Compound: O=C(NNc1c2ccccc2nc2ccccc12)c1cccnc1 [compound 11]
EC50 (NCI-H358 cells [8]; Homo sapiens, NCI-H358): < 50 µM

FOLD ACTIVATION MS (SIRT1 [9]; activation of SIRT1, mass spectrometry): B (Fold Activation<250%) | EC50 (SIRT1 [9]; activation of SIRT1, 0.5 μM peptide substrate (SEQ ID NO: 34), 120 μM NAD+, 10 nM SIRT1, 25 min, read-out: ED50 MS ASSAY): < 50 µM
Compound: Cc1nc(-c2cccc(Nc3nc4ccccc4s3)c2)cs1 [compound 94]
EC50 (NCI-H358 cells [8]; Homo sapiens, NCI-H358): > 150 µM

Compound: COc1cccc(OC)c1C(=O)Nc1cccc(-c2nc3ccccc3s2)c1 [compound 120]
EC50 (NCI-H358 cells [8]): < 50 µM

decrease of Km for peptide substrate (SIRT1 [11]; 1.2 μM resveratrol): 2% | decrease of Km for peptide substrate (SIRT1 [11]; 3.7 μM resveratrol): 14% | decrease of Km for peptide substrate (SIRT1 [11]; 11 μM resveratrol): 14% | decrease of Km for peptide substrate (SIRT1 [11]; 33 μM resveratrol): 32% | decrease of Km for peptide substrate (SIRT1 [11]; 100 μM resveratrol): 46%
Compound: Oc1ccc(C=Cc2cc(O)cc(O)c2)cc1 [resveratrol]
levels of mitochondrial mass biomarkers (NCI-H358 cells [10]): increases in the levels of mitochondrial mass biomarkers

Compound: p53 (aa 317-320) *FL (QPKK; also: fluorescent label; UniProt P04637 317-320, looked up, fragment)
Km (Sirt2 [4]; read-out: Peptide Km): 186 µM | Km (Sirt3; read-out: Peptide Km): 32 µM

Compound: p53 (aa 379-382) *FL (RHKK(Ac); not fully specified (C-terminus); printed as Arg-His-Lys-Lys; also: fluorescent label; UniProt P04637 379-382, looked up, fragment)
Km (SIRT1 [7]; read-out: Peptide Km): 64 µM
